The source of these data is patent publication US20080275032A1, “Pyridazinone compounds” (priority 2006, published 2008).

This test concerns the target HCV NS5B polymerase (Hepatitis C virus genotype 1b, UniProt P26663). The experiment in a line: biochemical. The note with it: HCV polymerase inhibition, 50 nM enzyme, 2 h at room temperature, FlashPlate [α-33P]GTP incorporation.

HCV NS5B polymerase, sequence (P26663 2420-3010): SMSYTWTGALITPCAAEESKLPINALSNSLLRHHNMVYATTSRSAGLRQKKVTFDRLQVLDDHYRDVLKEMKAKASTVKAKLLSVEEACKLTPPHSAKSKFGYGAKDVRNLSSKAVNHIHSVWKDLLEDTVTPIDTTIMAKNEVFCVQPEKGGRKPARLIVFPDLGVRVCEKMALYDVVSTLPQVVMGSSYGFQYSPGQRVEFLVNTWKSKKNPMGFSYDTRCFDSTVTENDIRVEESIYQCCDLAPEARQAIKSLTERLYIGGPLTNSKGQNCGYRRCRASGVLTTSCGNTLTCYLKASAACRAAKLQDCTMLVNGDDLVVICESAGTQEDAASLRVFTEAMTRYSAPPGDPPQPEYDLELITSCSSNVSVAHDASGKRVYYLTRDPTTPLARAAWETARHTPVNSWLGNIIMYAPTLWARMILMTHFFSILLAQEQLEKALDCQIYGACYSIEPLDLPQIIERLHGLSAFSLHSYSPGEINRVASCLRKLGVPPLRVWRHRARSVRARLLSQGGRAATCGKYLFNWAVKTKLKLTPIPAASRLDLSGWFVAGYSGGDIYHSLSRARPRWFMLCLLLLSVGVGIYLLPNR

The molecule `CC(C)CCn1nc(-c2cccs2)c(O)c(C2=NS(=O)(=O)c3cc(NS(=O)(=O)C(C)C)ccc3N2)c1=O` [Propane-2-sulfonic acid {3-[5-hydroxy-2-(3-methyl-butyl)-3-oxo-6-thiophen-2-yl-2,3-dihydro-pyridazin-4-yl]-1,1-dioxo-1,2-dihydro-1λ^6-benzo[1,2,4]thiadiazin-7-yl}-amide] returned an IC50 of under 0.1 µM.
The figure for `CC(C)CCn1nc(-c2cccs2)c(O)c(C2=Nc3ccc(NC(=O)OC(C)C)cc3S(=O)(=O)N2)c1=O` [{3-[5-Hydroxy-2-(3-methyl-butyl)-3-oxo-6-thiophen-2-yl-2,3-dihydro-pyridazin-4-yl]-1,1-dioxo-1,2-dihydro-1λ^6-benzo[1,2,4]thiadiazin-7-yl}-carbamic acid isopropyl ester] is 1 to 10 µM.
